Laboratory results reported in patent publication US20250026789A1, “PEPTIDE HAVING INHIBITORY ACTIVITY AGAINST AMYLOID PRECURSOR PROTEIN AND USE THEREOF” ([…]., priority 2021, published 2025).
“Also recorded” adds a separate entry of the source.

Experiments:
Assay type in all cases: cell-based, human
[1] = test system: amyloid precursor protein (APP); assay: APP expression by real-time qPCR in SH-SY5Y cells; details: peptide 0.001, 0.01, 0.1, or 1 mM, 24 hours, vs control group without peptide
Method: (§1) In the present example, the effect of inhibiting the expression of APP by peptide treatment was confirmed. To this end, the prepared peptides were added at a concentration of 0.001, 0.01, 0.1, or 1 mM to SH-SY5Y, which is a human neural cell line obtained by isolating cells from the bone marrow of a human having neuroblastoma and proliferating them, and then the cells were cultured for 24 hours. Afterward, total RNA was extracted from the culture, cDNA was synthesized, and real-time quantitative polymerase chain reaction (qPCR) was performed using the APP primers shown in Table 2 below to measure the expression level of amyloid precursor protein (APP). Meanwhile, a group to which no peptide was added was used as a control group, and a group to which a random peptide was added (NRP1: AFMVDNEAIYDICR (SEQ ID NO: 9)) was used as a comparative group.
as §1, with “of amyloid precursor protein” for “of APP”, “real-time qPCR” for “real-time quantitative polymerase chain reaction (qPCR)”, “2 above” for “2 below”, “of APP.” for “of amyloid precursor protein (APP).”

ADAM 17 = ADAM 17 expression by real-time qPCR in SH-SY5Y cells; details: peptide 0.001, 0.01, 0.1, or 1 mM, 24 hours, vs control group without peptide
Method: (§2) ADAM 17 is an enzyme that removes APP from the cell membrane surface by cleaving it into a non-toxic fragment, sAPPa. Therefore, the increased expression of ADAM 17 may be used as an indicator of a therapeutic effect on a neurodegenerative disease. Specifically, the prepared peptides were added to SH-SY5Y, a neural cell line, at a concentration of 0.001, 0.01, 0.1, or 1 mM, and cultured at 37° C. and 5% CO2 for 24 hours. Afterward, total RNA was extracted from the culture, cDNA was synthesized, and real-time qPCR was performed using the ADAM 17 primers shown in Table 4 below to measure the expression level of […]. In addition, the prepared peptides were added to SH-SY5Y, a human neural cell line, at a concentration of 0.001, 0.01, 0.1, or 1mM, and cultured at 37° C. and 5% CO2 for 24 hours. Afterward, the expression of ADAM 17 protein from the culture and the expression of sAPPa, which was cleaved from APP by ADAM 17 and ADAM 10 and released, were confirmed through Western blotting using antibodies against each protein. In addition, the distribution of APP on the surface of a nerve cell membrane was analyzed using flow cytometric analysis. Meanwhile, a group to which no peptide was added was used as a control group.
The prepared peptides were added to SH-SY5Y, a neural cell line, at a concentration of 0.001, 0.01, 0.1, or 1 mM, and the cells were cultured at 37° C. and 5% CO2 for 24 hours. Afterward, total RNA was extracted from the culture, cDNA was synthesized, and real-time qPCR was performed using the ADAM 17 primers in Table 4 above to measure the expression level of ADAM 17. Meanwhile, a group to which no peptide was added was used as a control group.

[2] = test system: Brain Derived Neurotrophic Factor (BDNF); assay: BDNF expression by real-time qPCR in SH-SY5Y cells; details: peptide 0.001, 0.01, 0.1, or 1 mM, 24 hours, vs control group without peptide
Method: In the present example, to confirm the effect of improving or treating a degenerative neurological disease through the regeneration of the nervous system by peptide treatment, the effect of increasing the expression of Brain Derived Neurotrophic Factor (BDNF) was examined. Specifically, the prepared peptides were added to SH-SY5Y, a human neural cell line, at a concentration of 0.001, 0.01, 0.1, or 1 mM, and the cells were cultured at 37° C. and 5% CO2 for 24 hours. Afterward, total RNA was extracted from the culture, cDNA was synthesized, and real-time qPCR was performed using the BDNF primers shown in Table 8 below to measure the expression level of BDNF. Meanwhile, a group to which no peptide was added was used as a control group.

IL-10 = IL-10 expression by real-time qPCR in SH-SY5Y cells; details: peptide 0.001, 0.01, 0.1, or 1 mM, 24 hours, vs control group without peptide
Method: In the present example, to confirm the effect inhibiting a neuroinflammatory response by peptide treatment, which is one of the main causes of a neurodegenerative disease, the effect of increasing the expression of IL-10, one of the anti-inflammatory cytokines, was confirmed. Specifically, the prepared peptides were added to SH-SY5Y, a human neural cell line, at a concentration of 0.001, 0.01, 0.1, or 1 mM, and the cells were cultured at 37° C. and 5% CO2 for 24 hours. Afterward, total RNA was extracted from the culture, cDNA was synthesized, and real-time qPCR was performed using the IL-10 primers in Table 6 below to measure the expression level of IL-10. Meanwhile, a group to which no peptide was added was used as a control group.
In the present example to confirm the effect of inhibiting a neuroinflammatory response, which is one of the main causes of a neurodegenerative disease, by peptide treatment, the effect of increasing the expression of IL-10, one of the anti-inflammatory cytokines, was attempted. Specifically, the prepared peptide was added to SH-SY5Y, a human neural cell line, at a concentration of 0.001, 0.01, 0.1, or 1 mM, and the cells were cultured at 37° C. and 5% CO2 for 24 hours. Afterward, total RNA was extracted from the culture, cDNA was synthesized, and real-time qPCR was performed using the IL-10 primers in Table 6 above to measure the expression level of IL-10. Meanwhile, a group to which no peptide was added was used as a control group.

[3] = test system: IDE (insulin degrading enzyme); assay: IDE expression by real-time qPCR in SH-SY5Y cells; details: peptide 0.01, 0.1, or 1 mM, 24 hours, vs control group without peptide
Method: IDE is an enzyme that degrades senile plaques produced and aggregated by beta-amyloid (Ab1-42, 1-40). Therefore, the increased expression of IDE may be used as an indicator of a therapeutic effect of a neurodegenerative disease. Specifically, the prepared peptides were added to SH-SY5Y, a human neural cell line, at a concentration of 0.01, 0.1, or 1 mM, and the cells were cultured at 37° C. and 5% CO2 for 24 hours. Afterward, total RNA was extracted from the culture, cDNA was synthesized, and real-time qPCR was performed using the IDE primers in Table 5 below to measure the expression level of IDE. Meanwhile, a group to which no peptide was added was used as a control group.

SH-SY5Y = assay: Neurite growth in SH-SY5Y cells (microscope, length); details: peptide 0.01, 0.1, or 1 mM, 24 hours
Method: In the present example, to confirm the regeneration of neurons by treatment with the peptides, the growth of neurites was confirmed. Specifically, the prepared peptides were added to SH-SY5Y, a human neural cell line, at a concentration of 0.01, 0.1, or 1 mM, and the cells were cultured for 24 hours. Afterward, the grown neurites were confirmed through a microscope, and their length was measured and evaluated.

ADAM 10 = ADAM 10 expression by real-time qPCR in SH-SY5Y cells; details: peptide 0.001, 0.01, 0.1, or 1 mM, 24 hours, vs control group without peptide
Method: ADAM 10 is an alpha-secretase that cleaves APP into a non-toxic fragment and inhibits the production of beta-amyloid (β-amyloid, Ab1-42, 1-40). Therefore, the increased expression of ADAM 10 may be used as an indicator of a therapeutic effect on a neurodegenerative disease. Specifically, the prepared peptides were added to SH-SY5Y, a human neural cell line, at a concentration of 0.001, 0.01, 0.1, or 1 mM, and the cells were cultured at 37° C. and 5% CO2 for 24 hours. Afterwards, total RNA was extracted from the culture, cDNA was synthesized, and real-time qPCR was performed using the ADAM 10 primers shown in Table 3 below to measure the expression level of ADAM 10. Meanwhile, a group to which no peptide was added was used as a control group.

sAPPa = sAPPa expression by Western blotting in SH-SY5Y cells; details: peptide 0.001, 0.01, 0.1, or 1 mM, 24 hours, vs control group without peptide
Method: as §2

ADAM 17 protein = ADAM 17 protein expression by Western blotting in SH-SY5Y cells; details: peptide 0.001, 0.01, 0.1, or 1 mM, 24 hours, vs control group without peptide
Method: as §2

Sequence | expression of APP [1] | expression of ADAM 17 (gene, qPCR) (ADAM 17) | expression of BDNF [2] | expression of IL-10 (IL-10) | expression of IDE [3] | length of the neurites (SH-SY5Y) | expression of ADAM 10 (ADAM 10) | expression of sAPPa (Western blotting) (sAPPa) | expression of ADAM 17 protein (Western blotting) (ADAM 17 protein)
GRILGFSPFR [Peptide-12] | inhibited | increased | increased; also recorded: more significant | increased |  |  |  |  | 
GRPPGFSLAR [Peptide-11] | inhibited | increased | increased; also recorded: more significant | increased |  |  |  |  | 
IKLLSIVAWAKKKI [Peptide-2] |  |  |  |  | increased | increased |  |  | 
INIKVLIAKKIL [Peptide-4] | inhibited | increased |  | increased | increased |  | increased | increased | increased
INLKALAAKIKIL [Peptide-3] |  |  |  | increased | increased |  | increased |  | 
INLLKIAGKIINIL [Peptide-9] |  | increased | increased | increased; also recorded: more significant |  |  |  |  | 
INLLKSEGKIIKSL [Peptide-10] |  | increased | increased |  |  |  |  |  | 
KALAALAKK [Peptide-8] | inhibited |  |  |  | increased |  | increased |  | 
KALAALAKKIL [Peptide-7] | inhibited |  |  | increased | increased |  | increased | increased | increased
LKLKALAALIKKIL [Peptide-1] | inhibited | increased |  | increased | increased | increased |  | increased | increased
LNIRGLGAKKKI [Peptide-5] | inhibited |  |  | increased | increased |  | increased |  | 
LNLRGLAKKKL [Peptide-6] |  |  |  |  | increased | increased |  |  | 
